The text below walks through data of publication PMC545952, “Analysis of the kinetic mechanism of recombinant human isoprenylcysteine carboxylmethyltransferase (Icmt)” (BMC Biochemistry, 2004).

A word on the Km: it is the concentration of substrate that gives half-maximal velocity.

The structures appear in SMILES notation. pKi: −log10 of the molar value. “And” between values parts separate entries of the source, which are not always exact repeats. Equal entries are not always repeated. Where two headings read alike, the source gives them in different places.

One test has as its target T1, recombinant human Icmt (Homo sapiens, UniProt O60725).
T1 construct: a recombinant baculovirus containing the entire open reading frame of the human Icmt cDNA; made in house; host or cells: Sf9 insect cells (baculovirus); membrane fraction used
The test is described as follows: Icmt assay: [3H]methyl incorporation into BFC, Sf9 membranes containing recombinant human Icmt. In kind it is biochemical. The conditions noted are these: for Km: substrate of recombinant human Icmt, in vitro methylation assay, read-out: Km (apparent) as substrate. The text has this: Streptavidin-sepharose beads were purchased from Amersham, trans, trans-farnesyl bromide, biotin N-hydroxysuccinimide ester and S-(5'-adenosyl)-L-methionine p-toluenesulfonate were purchased from Sigma-Aldrich, L-cysteine was purchased from Novabiochem, [^3H-methyl]-S-adenosyl-L-methionine was purchased from Perkin Elmer Life Sciences, farnesylthioacetic acid (FTA) was purchased from Biomol, S-(5'-adenosyl)-L-homocysteine was purchased from Fluka. The N-acetyl-S-farnesylcysteine methyl ester (AFCME) and N-acetyl-S-farnesylcysteine methyl amide (AFCMA) were synthesized as previously described ([24-26]). Recombinant human Icmt was prepared by infection of Sf9 cells with a recombinant baculovirus containing the entire open reading frame of the human Icmt cDNA as described. The membrane fraction of the infected Sf9 cells, isolated as described for studies with the Rce1 protease, was used as the source of Icmt for all studies described.
The assay developed for Icmt activity involved quantitation of [^3H]methyl incorporation into the small molecule substrate BFC. For the standard assay, reactions were initiated by addition of Sf9 membranes containing Icmt (0.5 μg protein) to an assay mixture containing BFC (4 μM) and [^3H]AdoMet (5 μM, 1.3 Ci/mmol) in100 mM Hepes, pH 7.4 and 5 mM MgCl2 in a total volume of 45 μl. Reactions were carried out for 20 min at 37°C, whereupon they were terminated by addition of 5 μl of 10% Tween 20. Following termination, streptavidin beads (10 μl of packed beads suspended in 500 μl of 20 mM NaH2PO4, pH 7.4, contaning 150 mM NaCl) were added, and the mixtures mixed by gentle agitation overnight at 4°C. The beads were harvested by centrifugation in a tabletop microcentrifuge at 10,000 rpm for 5 min and washed 3 times with 500 μl of 20 mM NaH2PO4, pH 7.4, containing 150 mM NaCl. The beads were then suspended in 100 μl of the same buffer, transferred to scintillation vials, and radioactivity determined. For the kinetic analyses, the concentrations of substrates (AdoMet, BFC) or additional ligands (eg. AdoHcy, AFCME, etc) were varied as detailed in the legends to the appropriate figures.

The target in test [1] is methyltransferase activity in rod outer segments. The conditions noted are these: cited from earlier work; for pKi: previous study, rod outer segments.
Setting [2] is: varied AdoMet, fixed BFC 4 μM, read-out: Ki with respect to AdoMet.
The mark [3] stands for this setting: varied BFC, fixed AdoMet 5 μM, read-out: Ki with respect to BFC.

T1 sequence (O60725 whole entry): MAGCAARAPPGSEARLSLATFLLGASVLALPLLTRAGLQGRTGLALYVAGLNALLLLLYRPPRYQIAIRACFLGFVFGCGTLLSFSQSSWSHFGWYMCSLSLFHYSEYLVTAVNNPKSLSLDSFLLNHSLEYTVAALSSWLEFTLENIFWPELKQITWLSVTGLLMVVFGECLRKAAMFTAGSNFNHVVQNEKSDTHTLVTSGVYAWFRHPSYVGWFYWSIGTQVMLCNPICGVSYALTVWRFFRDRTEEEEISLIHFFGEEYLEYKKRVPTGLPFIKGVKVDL

Consider `CC(C)=CCC/C(C)=C/CC/C(C)=C/CSC[C@H](NC(=O)CCCCC1SCC2NC(=O)NC21)C(=O)O` (stereo partly drawn) [BFC, biotin-S-farnesyl-L-cysteine], for which the Km on recombinant human Icmt was found to be 2.1 µM.

As for `COC(=O)[C@H](CSCC=C(C)CCC=C(C)CCC=C(C)C)NC(C)=O` [AFCME, N-acetyl-S-farnesyl-L-cysteine methylester], the pKi is 4.39 in test [1] (compared with the value with respect to BFC, read-out: inhibition constant with respect to prenylcysteine substrate); 4.14 in test [1] (read-out: inhibition constant with respect to AdoMet); 5.62 and 5.61 on recombinant human Icmt (setting [2]); 5.72 at recombinant human Icmt (setting [3]). The “type of inhibition with respect to AdoMet” value on recombinant human Icmt (varied AdoMet, fixed BFC 4 μM) is given as “Mixed-type”. The “type of inhibition with respect to BFC” value at recombinant human Icmt (varied BFC, fixed AdoMet 5 μM) is reported as “Noncompetitive”.

On to `Nc1ncnc2c1ncn2[C@@H]1O[C@H](CSCC[C@H](N)C(=O)O)[C@@H](O)[C@H]1O` [AdoHcy, S-adenosyl-L-homocysteine], for which the “type of inhibition with respect to AdoMet” value on recombinant human Icmt (varied AdoMet, fixed BFC 4 μM) is “Competitive”. Also, the pKi on recombinant human Icmt (setting [2]) was 5.46 and 5.45; at recombinant human Icmt (setting [3]) it was 5.44. Further, on recombinant human Icmt (varied BFC, fixed AdoMet 5 μM), the “type of inhibition with respect to BFC” value is reported as “Competitive”.

Consider `C[S+](CC[C@H](N)C(=O)[O-])C[C@H]1O[C@@H](n2cnc3c(N)ncnc32)[C@H](O)[C@@H]1O` (stereo partly drawn) [AdoMet, S-adenosyl-L-methionine], for which the Km on recombinant human Icmt came to 7.8 µM.

Turning to `CC(C)=CCC/C(C)=C/CC/C(C)=C/CSCC(=O)O` [FTA, S-farnesylthioacetic acid], the “type of inhibition with respect to AdoMet” value at recombinant human Icmt (varied AdoMet, fixed BFC 4 μM) is on record as “Uncompetitive”. Moreover, the “type of inhibition with respect to BFC” value on recombinant human Icmt (varied BFC, fixed AdoMet 5 μM) was “Competitive”. Further, on recombinant human Icmt (setting [3]), the pKi is 5.92 and 5.93.

Regarding `CNC(=O)[C@H](CSCC=C(C)CCC=C(C)CCC=C(C)C)NC(C)=O` [AFCMA, N-acetyl-S-farnesyl-L-cysteine methyl amide], the “product inhibition results compared with AFCME” value on recombinant human Icmt (second prenylcysteine-type product analog, data not shown) is “essentially identical results”.

For `CC(=O)N[C@@H](CSCC=C(C)CCC=C(C)CCC=C(C)C)C(=O)O` [AFC, N-acetyl-L-farnesylcysteine], the Km in test [1] (read-out: apparent Km as substrate) was 20 µM. Besides, the “apparent Km relative to Km of BFC” value at recombinant human Icmt (AFC Km (ref 20, 31) versus BFC Km 2.1 μM) is given as 10 fold.
